Our source for the IC50 values is patent US20240150368A1, “ULK INHIBITORS AND METHODS OF USE THEREOF” (Deciphera Pharmaceuticals, LLC, priority 2022, published 2024).

Experiment [1] concerns the target T1, ULK1 kinase (Homo sapiens, UniProt O75385, E37A/K38A).
T1 construct: (residues 1-283; ID NO: 1); purchased Beryllium
T1 sequence (O75385 1-283 E37A/K38A): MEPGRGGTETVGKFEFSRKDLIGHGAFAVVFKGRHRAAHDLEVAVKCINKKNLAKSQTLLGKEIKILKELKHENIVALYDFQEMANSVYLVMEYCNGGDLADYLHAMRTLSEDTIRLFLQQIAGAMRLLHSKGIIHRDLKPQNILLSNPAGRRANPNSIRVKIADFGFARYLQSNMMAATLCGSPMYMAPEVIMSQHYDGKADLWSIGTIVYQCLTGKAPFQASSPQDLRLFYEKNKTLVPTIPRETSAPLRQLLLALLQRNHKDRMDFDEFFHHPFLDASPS
As to the kind of experiment: Biochemical assay for ULK1 (coupled pyruvate kinase/lactate dehydrogenase assay). The note with it: 1 mM ATP, 0.1 nM ULK1; read-out: ULK1 (inhibition of biochemical activity), IC50. A digest of the protocol:
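IC50 values were fitted to percent inhibition, normalised with no-compound and known-inhibitor controls, using rates from 2–3 h of a 6 h read at 30 °C. ADP was coupled through pyruvate kinase/lactate dehydrogenase to NADH loss at 340 nm.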

The target of experiment [2] is T2, ULK2 kinase (Homo sapiens, UniProt Q8IYT8).
T2 construct: (residues 1-306 with N-terminal GST and His tag; ID NO: 2); purchased Signal Chem U02-11G
The experiment can be described thus: Biochemical assay for ULK2 (coupled pyruvate kinase/lactate dehydrogenase assay). As to conditions: 1 mM ATP, 1 nM ULK2; read-out: ULK2 (inhibition of biochemical activity), IC50. How it is done:
Biochemical Assay for ULK2 (SEQ. ID NO: 2)
Activity of ULK2 kinase was determined spectroscopically using a coupled pyruvate kinase/lactate dehydrogenase assay that continuously monitors the ATP hydrolysis-dependent oxidation of NADH (e.g., Schindler et al. Science (2000) 289: 1938-1942). Assays were conducted in 384-well plates (100 μL final volume) using 1 nM ULK2 (Signal Chem U02-11G), 200 μM ULKtide, 1.5 units pyruvate kinase, 2.1 units lactate dehydrogenase, 1 mM phosphoenol pyruvate, 0.28 mM NADH and 1 mM ATP in assay buffer (100 mM Tris, pH 7.5, 15 mM MgCl2, 0.5 mM DTT, 0.1% octyl-glucoside, 0.002% (w/v) BSA, and 0.002% Triton X-100). Inhibition of ULK2 was measured by adding serial diluted test compound (final assay concentration of 1% DMSO). A decrease in absorption at 340 nm was monitored continuously for 6 h at 30° C. on a multi-mode microplate reader (BioTek). The reaction rate was calculated using the 2-3 h time frame. The reaction rate at each concentration of compound was converted to percent inhibition using controls (i.e., reaction with no test compound and reaction with a known inhibitor) and IC50 values were calculated by fitting a four-parameter sigmoidal curve to the data using Prism (GraphPad software).

The test system of experiment [3] is ULK kinase substrate ATG13 (pS318-ATG13) in A549 (KRAS mutant) cells. As to the kind of experiment: pATG13 levels of mutant KRas A549 cells after treatment with ULK inhibitors in combination with trametinib (ELISA). It is filed as cell-based, human. How it is done: Cellular Inhibition of ULK Kinase Substrate ATG13 Protein pATG13 Levels of Mutant KRas A549 Cells after Treatment with ULK Inhibitors in Combination with Trametinib
A549 (KRAS mutant) human lung cancer cells (6,000 cells/well) were added to a 384-well tissue-culture treated plate in 50 μL of pre-warmed DMEM medium supplemented with 10% characterized fetal bovine serum (Invitrogen, Carlsbad, CA), 100 units/mL penicillin G, and 100 μg/mL streptomycin and allowed to grow overnight at 37° C., 5% CO2, and 95% humidity. The following day, 10 μL of media containing trametinib or DMSO as a control was added to wells. The final concentration of trametinib in wells was 250 nM. A dose response of a test compound (0.6 μL per well) was added. DMSO (0.6 μL) was added to control wells. The plate was briefly shaken to mix wells and then incubated at 37° C. overnight. The next day, the media was aspirated and cells were washed with Dulbecco's Phosphate Buffered Saline (Gibco). Cells were lysed using MPER lysis buffer (Pierce, Rockford, IL) containing Halt Phosphatase and Protease Inhibitors (Pierce, Rockford, IL) and Phosphatase inhibitor cocktail 2 (Sigma, St. Louis, MO) at 4° C. for 10 min with shaking.
Cellular levels of phospho-Serine 318 ATG13 (pATG13) were measured via an ELISA method. Total ATG13 Antibody (Cell Signaling Cat #13273) was used to coat the wells. The plate was incubated at 4° C. overnight and washed with ELISA wash buffer (Biolegend Cat #421601). The wells were then blocked with assay diluent (Biolegend Cat #421203) for 1 h at rt. Plate wells were washed with ELISA wash buffer. Cell lysate was added to wells and incubated at rt for 2 h. Plate wells were washed with ELISA wash buffer. Biotinylated pS318-ATG13 antibody (Rockland Immunochemicals Cat #600-401-C49) was diluted in assay diluent and added to each well and incubated at rt for 1 h. Plate wells were washed with ELISA wash buffer. Streptavidin linked to horseradish peroxidase (Thermo Fisher Cat #21140) was diluted in assay diluent and added to each well and incubated at rt for 1 h. Plate wells were washed with ELISA wash buffer. High sensitivity TMB substrate (Biolegend Cat #421101) was added to each well and incubated at rt for 20 min. The reaction was stopped with 2N Sulfuric Acid. The plate was analyzed at on a plate reader measuring absorbance at 450 nm and 540 nm (background). Signal was calculated by first subtracting the background absorbance at 540 nm from the absorbance at 450 nm for each well. Next, the background corrected absorbance at 450 nm from blank wells was subtracted from test wells. Data was compared to control wells to determine % ATG13 phosphorylation. GraphPad Prism was used to calculate IC50 values.
In general terms: An ELISA detects its analyte on a solid surface through an enzyme-linked reagent.

The target in experiment [4] is T3, LRRK2 kinase (Homo sapiens, UniProt Q5S007).
T3 construct: (residues 970-2528; ID NO; 3); purchased Thermo Fisher
As to the kind of experiment: Biochemical assay for LRRK2 (coupled pyruvate kinase/lactate dehydrogenase assay). The note with it: 26.4 nM LRRK2, 1 mM ATP; read-out: LRRK2 (inhibition of LRRK2 kinase activity, IC50). How it is done: Biochemical Assay for LRRK2 (SEQ. ID NO. 3)
Activity of LRRK2 kinase was determined spectroscopically using a coupled pyruvate kinase/lactate dehydrogenase assay that continuously monitors the ATP hydrolysis-dependent oxidation of NADH (e.g., Schindler et al. Science (2000) 289: 1938-1942). Assays were conducted in 384-well plates (100 μL final volume) using 26.4 nM LRRK2 (Thermo Fisher), 0.1 mM peptide substrate (RLGRDKYKTLRQIRQ), 1.5 units pyruvate kinase, 2.1 units lactate dehydrogenase, 1 mM phosphoenol pyruvate, 0.28 mM NADH and 1 mM ATP in assay buffer (100 mM Tris, pH 7.5, 15 mM MgCl2, 0.5 mM DTT, 0.004% (w/v) BSA, and 0.004% Triton X-100). Inhibition of LRRK2 was measured by adding serial diluted test compound (final assay concentration of 1% DMSO). A decrease in absorption at 340 nm was monitored continuously for 6 h at 30° C. on a multi-mode microplate reader (BioTek). The reaction rate was calculated using the 2-3 h time frame. The reaction rate at each concentration of compound was converted to percent inhibition using controls (i.e., reaction with no test compound and reaction with a known inhibitor) and IC50 values were calculated using software routines in Prism (GraphPad software).

T2 sequence (Q8IYT8 with tags, fused parts or gaps): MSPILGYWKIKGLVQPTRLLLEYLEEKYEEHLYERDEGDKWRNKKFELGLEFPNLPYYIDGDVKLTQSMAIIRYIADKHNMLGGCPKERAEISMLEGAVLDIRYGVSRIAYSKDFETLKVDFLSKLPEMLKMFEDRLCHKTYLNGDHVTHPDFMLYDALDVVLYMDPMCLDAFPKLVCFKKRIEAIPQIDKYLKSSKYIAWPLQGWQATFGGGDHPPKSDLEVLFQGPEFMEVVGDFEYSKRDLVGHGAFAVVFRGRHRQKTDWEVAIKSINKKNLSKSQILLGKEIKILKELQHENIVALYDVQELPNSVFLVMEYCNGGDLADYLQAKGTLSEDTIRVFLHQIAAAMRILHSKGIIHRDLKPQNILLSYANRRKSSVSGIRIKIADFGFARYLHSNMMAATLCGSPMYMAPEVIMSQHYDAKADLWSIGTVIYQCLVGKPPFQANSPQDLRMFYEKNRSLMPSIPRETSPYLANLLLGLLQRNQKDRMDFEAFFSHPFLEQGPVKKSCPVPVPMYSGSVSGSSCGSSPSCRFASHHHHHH
T3 sequence (Q5S007 with tags, fused parts or gaps): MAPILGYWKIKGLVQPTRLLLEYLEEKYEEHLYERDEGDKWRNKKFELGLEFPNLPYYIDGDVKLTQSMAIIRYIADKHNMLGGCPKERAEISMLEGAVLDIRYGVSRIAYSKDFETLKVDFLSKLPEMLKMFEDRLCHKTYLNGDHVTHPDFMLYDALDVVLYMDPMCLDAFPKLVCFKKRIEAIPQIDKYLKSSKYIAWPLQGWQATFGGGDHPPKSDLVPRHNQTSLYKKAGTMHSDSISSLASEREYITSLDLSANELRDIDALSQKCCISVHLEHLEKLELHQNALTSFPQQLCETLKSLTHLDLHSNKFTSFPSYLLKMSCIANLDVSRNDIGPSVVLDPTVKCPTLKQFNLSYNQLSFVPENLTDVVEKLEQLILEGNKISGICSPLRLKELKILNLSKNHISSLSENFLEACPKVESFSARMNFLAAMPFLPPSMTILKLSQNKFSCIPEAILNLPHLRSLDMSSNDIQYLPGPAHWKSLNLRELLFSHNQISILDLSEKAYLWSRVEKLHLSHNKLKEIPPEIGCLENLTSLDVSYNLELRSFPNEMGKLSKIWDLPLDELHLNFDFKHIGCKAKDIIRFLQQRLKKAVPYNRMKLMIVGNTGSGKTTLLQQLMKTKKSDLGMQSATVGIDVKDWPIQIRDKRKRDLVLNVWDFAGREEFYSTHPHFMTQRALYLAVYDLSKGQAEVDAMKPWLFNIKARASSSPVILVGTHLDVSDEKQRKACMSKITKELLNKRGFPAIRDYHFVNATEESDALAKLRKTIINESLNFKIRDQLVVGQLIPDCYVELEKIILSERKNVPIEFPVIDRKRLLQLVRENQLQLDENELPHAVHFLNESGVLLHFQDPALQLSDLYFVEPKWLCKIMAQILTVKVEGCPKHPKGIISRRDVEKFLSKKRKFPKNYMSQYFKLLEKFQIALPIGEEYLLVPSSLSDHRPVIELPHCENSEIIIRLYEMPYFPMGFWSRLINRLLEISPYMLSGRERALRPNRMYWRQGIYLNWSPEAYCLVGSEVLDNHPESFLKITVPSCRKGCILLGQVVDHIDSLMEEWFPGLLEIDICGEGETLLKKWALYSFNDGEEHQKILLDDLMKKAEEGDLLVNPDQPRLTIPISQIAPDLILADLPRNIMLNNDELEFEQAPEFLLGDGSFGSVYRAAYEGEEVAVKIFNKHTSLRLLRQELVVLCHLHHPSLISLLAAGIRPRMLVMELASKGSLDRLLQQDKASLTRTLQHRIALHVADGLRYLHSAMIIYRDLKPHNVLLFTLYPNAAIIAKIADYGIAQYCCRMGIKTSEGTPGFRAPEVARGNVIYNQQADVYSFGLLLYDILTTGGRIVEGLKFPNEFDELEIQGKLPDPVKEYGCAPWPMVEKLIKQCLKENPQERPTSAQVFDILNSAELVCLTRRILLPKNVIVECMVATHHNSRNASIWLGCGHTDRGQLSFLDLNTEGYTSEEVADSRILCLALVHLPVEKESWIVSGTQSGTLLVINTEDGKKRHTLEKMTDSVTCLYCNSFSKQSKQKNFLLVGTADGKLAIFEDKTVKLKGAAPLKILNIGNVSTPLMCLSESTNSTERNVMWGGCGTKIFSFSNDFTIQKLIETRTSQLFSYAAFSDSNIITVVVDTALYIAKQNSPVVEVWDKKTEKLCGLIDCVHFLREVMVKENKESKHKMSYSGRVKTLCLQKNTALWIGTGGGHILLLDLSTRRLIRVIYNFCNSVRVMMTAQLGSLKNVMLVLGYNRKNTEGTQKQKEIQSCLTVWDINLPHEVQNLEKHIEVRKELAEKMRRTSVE

As usually defined, the IC50 is the midpoint of a concentration-inhibition curve. `CC/C(Nc1cnn(C(C)C)c1)=C1/C(=O)Nc2ccc(C(C)=O)cc21` [Example 177]: the IC50 in experiment [1] is 100 to 500 nM; in experiment [2] it was 100 to 500 nM; in experiment [3], above 600 nM; in experiment [4], at most 100 nM.
